System: 947758-054-R-J2-PDC spheroid growth, percent test/control
Test: Anticancer human tumor 947758-054-R-J2-PDC patient-derived colon adenocarcinoma cell line growth inhibition [CLK]
Conditions: spheroids with HUVEC and MSC; for IC50: curve of first compound; for viability, T/C: stronger effect = lower value
Outline: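 Multi-cell-type spheroids combined patient-derived tumor cells with HUVEC endothelial cells and human mesenchymal stem cells. Paired agents were dosed in half-log steps down from about clinical Cmax, or from 10 microM where Cmax was unknown.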

[1] = second compound 0.0316 µM, first compound 0.0316 µM
[2] = second compound 0.0316 µM, first compound 0.1 µM
[3] = second compound 0.0316 µM, first compound 0.316 µM
[4] = second compound 0.0316 µM, first compound 1 µM
[5] = second compound 0.0316 µM, first compound 3.16 µM
[6] = second compound 0.0316 µM, first compound 10 µM
[7] = second compound 0.1 µM, first compound 0.0316 µM
[8] = second compound 0.1 µM, first compound 0.1 µM
[9] = second compound 0.1 µM, first compound 0.316 µM
[10] = second compound 0.1 µM, first compound 1 µM
[11] = second compound 0.1 µM, first compound 3.16 µM
[12] = second compound 0.1 µM, first compound 10 µM
[13] = second compound 0.316 µM, first compound 0.0316 µM
[14] = second compound 0.316 µM, first compound 0.1 µM
[15] = second compound 0.316 µM, first compound 0.316 µM
[16] = second compound 0.316 µM, first compound 1 µM
[17] = second compound 0.316 µM, first compound 3.16 µM
[18] = second compound 0.316 µM, first compound 10 µM
[19] = second compound 1 µM, first compound 0.0316 µM
[20] = second compound 1 µM, first compound 0.1 µM
[21] = second compound 1 µM, first compound 0.316 µM
[22] = second compound 1 µM, first compound 1 µM
[23] = second compound 1 µM, first compound 3.16 µM
[24] = second compound 1 µM, first compound 10 µM
[25] = second compound 3.16 µM, first compound 0.0316 µM
[26] = second compound 3.16 µM, first compound 0.1 µM
[27] = second compound 3.16 µM, first compound 0.316 µM
[28] = second compound 3.16 µM, first compound 1 µM
[29] = second compound 3.16 µM, first compound 3.16 µM
[30] = second compound 3.16 µM, first compound 10 µM
[31] = second compound 10 µM, first compound 0.0316 µM
[32] = second compound 10 µM, first compound 0.1 µM
[33] = second compound 10 µM, first compound 0.316 µM
[34] = second compound 10 µM, first compound 1 µM
[35] = second compound 10 µM, first compound 3.16 µM
[36] = second compound 10 µM, first compound 10 µM
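Further: spheroids exposed to compounds for one week before readout.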
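Wherever viability, T/C is given: 100% = DMSO vehicle control wells.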

SMILES: C#Cc1c(F)ccc2cc(O)cc(-c3ncc4c(N5CC6CCC(C5)N6)nc(OCC56CCCN5CC(F)C6)nc4c3F)c12 (stereo unspecified) + CNC(=O)c1ccc(Nc2nc(OC3CCCC3)c3c(-c4ccc5nc(C)oc5c4)c[nH]c3n2)c(OC)c1
- IC50 (second compound 0.0316 µM): > 10 µM
- IC50 (second compound 0.1 µM): > 10 µM
- IC50 (second compound 0.316 µM): > 10 µM
- IC50 (second compound 1 µM): 3.64 µM
- IC50 (second compound 3.16 µM): < 0.0316 µM
- IC50 (second compound 10 µM): < 0.0316 µM
- viability, T/C [1]: 82.3%
- viability, T/C [2]: 77.8%
- viability, T/C [3]: 79.1%
- viability, T/C [4]: 73.4%
- viability, T/C [5]: 77%
- viability, T/C [6]: 66.8%
- viability, T/C [7]: 88.6%
- viability, T/C [8]: 92.6%
- viability, T/C [9]: 79%
- viability, T/C [10]: 91.7%
- viability, T/C [11]: 103%
- viability, T/C [12]: 79.2%
- viability, T/C [13]: 64.9%
- viability, T/C [14]: 75.3%
- viability, T/C [15]: 66.6%
- viability, T/C [16]: 91%
- viability, T/C [17]: 77.4%
- viability, T/C [18]: 56.4%
- viability, T/C [19]: 44.4%
- viability, T/C [20]: 56.8%
- viability, T/C [21]: 47.4%
- viability, T/C [22]: 53.8%
- viability, T/C [23]: 55.8%
- viability, T/C [24]: 38.1%
- viability, T/C [25]: 43.2%
- viability, T/C [26]: 35.4%
- viability, T/C [27]: 40.4%
- viability, T/C [28]: 46.7%
- viability, T/C [29]: 44.4%
- viability, T/C [30]: 29.5%
- viability, T/C [31]: 36%
- viability, T/C [32]: 24.8%
- viability, T/C [33]: 30.9%
- viability, T/C [34]: 32.2%
- viability, T/C [35]: 31.7%
- viability, T/C [36]: 24.4%

SMILES: CC(CO)NC(=O)c1cc(-c2ccc(Cl)cc2)nn(-c2cnn(C)c2)c1=O (stereo unspecified) + CNC(=O)c1ccc(Nc2nc(OC3CCCC3)c3c(-c4ccc5nc(C)oc5c4)c[nH]c3n2)c(OC)c1
- IC50 (second compound 0.0316 µM): > 10 µM
- IC50 (second compound 0.1 µM): > 10 µM
- IC50 (second compound 0.316 µM): 9.67 µM
- IC50 (second compound 1 µM): > 10 µM
- IC50 (second compound 3.16 µM): < 0.0316 µM
- IC50 (second compound 10 µM): < 0.0316 µM
- viability, T/C [1]: 92.2%
- viability, T/C [2]: 66.3%
- viability, T/C [3]: 72.1%
- viability, T/C [4]: 71.8%
- viability, T/C [5]: 65.8%
- viability, T/C [6]: 52.3%
- viability, T/C [7]: 84.3%
- viability, T/C [8]: 93.9%
- viability, T/C [9]: 80%
- viability, T/C [10]: 84.6%
- viability, T/C [11]: 68.6%
- viability, T/C [12]: 52.5%
- viability, T/C [13]: 76.2%
- viability, T/C [14]: 69%
- viability, T/C [15]: 69.8%
- viability, T/C [16]: 87.1%
- viability, T/C [17]: 88.5%
- viability, T/C [18]: 49.1%
- viability, T/C [19]: 67.2%
- viability, T/C [20]: 51.9%
- viability, T/C [21]: 52.7%
- viability, T/C [22]: 65.3%
- viability, T/C [23]: 72.4%
- viability, T/C [24]: 35.9%
- viability, T/C [25]: 46.9%
- viability, T/C [26]: 41%
- viability, T/C [27]: 51.1%
- viability, T/C [28]: 56.6%
- viability, T/C [29]: 55.9%
- viability, T/C [30]: 37.2%
- viability, T/C [31]: 28.5%
- viability, T/C [32]: 44.2%
- viability, T/C [33]: 40.4%
- viability, T/C [34]: 41.6%
- viability, T/C [35]: 30%
- viability, T/C [36]: 25.9%

SMILES: COc1c(OCCCN2CCOCC2)ccc2c3n(c(=NC(=O)c4cnc(N)nc4)nc12)CCN3 + CNC(=O)c1ccc(Nc2nc(OC3CCCC3)c3c(-c4ccc5nc(C)oc5c4)c[nH]c3n2)c(OC)c1
- IC50 (second compound 0.0316 µM): 0.0181 µM
- IC50 (second compound 0.1 µM): 0.0147 µM
- IC50 (second compound 0.316 µM): 0.00781 µM
- IC50 (second compound 1 µM): < 0.00316 µM
- IC50 (second compound 3.16 µM): < 0.00316 µM
- IC50 (second compound 10 µM): < 0.00316 µM
- viability, T/C (second compound 0.0316 µM, first compound 0.00316 µM): 77%
- viability, T/C (second compound 0.0316 µM, first compound 0.01 µM): 53.6%
- viability, T/C [1]: 39.2%
- viability, T/C [2]: 37.2%
- viability, T/C [3]: 25.1%
- viability, T/C [4]: 13.4%
- viability, T/C (second compound 0.1 µM, first compound 0.00316 µM): 69.9%
- viability, T/C (second compound 0.1 µM, first compound 0.01 µM): 60.6%
- viability, T/C [7]: 30.2%
- viability, T/C [8]: 22.2%
- viability, T/C [9]: 14.9%
- viability, T/C [10]: 10.6%
- viability, T/C (second compound 0.316 µM, first compound 0.00316 µM): 71.4%
- viability, T/C (second compound 0.316 µM, first compound 0.01 µM): 44.6%
- viability, T/C [13]: 21.1%
- viability, T/C [14]: 11.8%
- viability, T/C [15]: 8.06%
- viability, T/C [16]: 3.94%
- viability, T/C (second compound 1 µM, first compound 0.00316 µM): 49.8%
- viability, T/C (second compound 1 µM, first compound 0.01 µM): 30.4%
- viability, T/C [19]: 10.1%
- viability, T/C [20]: 4.35%
- viability, T/C [21]: 3.7%
- viability, T/C [22]: 2.28%
- viability, T/C (second compound 3.16 µM, first compound 0.00316 µM): 43.2%
- viability, T/C (second compound 3.16 µM, first compound 0.01 µM): 17.7%
- viability, T/C [25]: 9.11%
- viability, T/C [26]: 3.98%
- viability, T/C [27]: 3.84%
- viability, T/C [28]: 2.88%
- viability, T/C (second compound 10 µM, first compound 0.00316 µM): 25.4%
- viability, T/C (second compound 10 µM, first compound 0.01 µM): 15.1%
- viability, T/C [31]: 8.44%
- viability, T/C [32]: 4.43%
- viability, T/C [33]: 2.95%
- viability, T/C [34]: 2.09%

Source: PubChem BioAssay AID2060605 (Molecular Pharmacology Branch, DTP, NCI, 2025)
